According to BindingDB's records for doi:10.1080/14756360802187612 (Ben-Gurion University of The Negev, 2009):
Structures can show the parent of a compound that is named as a salt.

Target: Tryptophanase (Escherichia coli (strain K12), UniProt P0A853)
Assay: Enzyme Inhibition Assay
Settings: pH 7.8; 25 °C
From the text: Enzyme inhibition assay using tryptophanase.

Chain of Tryptophanase (P0A853 whole entry): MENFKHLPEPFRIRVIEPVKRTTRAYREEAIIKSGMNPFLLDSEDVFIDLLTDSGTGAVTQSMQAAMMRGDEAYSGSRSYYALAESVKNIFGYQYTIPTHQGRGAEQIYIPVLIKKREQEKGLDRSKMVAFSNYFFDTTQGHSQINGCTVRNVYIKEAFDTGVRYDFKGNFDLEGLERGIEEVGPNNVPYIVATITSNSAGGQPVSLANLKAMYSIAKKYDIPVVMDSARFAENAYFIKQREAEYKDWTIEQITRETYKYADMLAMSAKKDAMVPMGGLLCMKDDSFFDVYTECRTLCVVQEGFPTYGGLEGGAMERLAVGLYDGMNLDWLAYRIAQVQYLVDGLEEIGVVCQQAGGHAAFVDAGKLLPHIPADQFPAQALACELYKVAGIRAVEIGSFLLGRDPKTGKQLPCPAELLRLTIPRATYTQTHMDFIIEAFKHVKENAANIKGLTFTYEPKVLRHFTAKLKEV

Ki | SMILES
48 µM | CC(=O)NC(Cc1c[nH]c2ccccc12)C(=O)O (configuration not stated) [N-acetyl tryptophan]
52 µM | CCOC(=O)C(N)Cc1c[nH]c2ccccc12 [L-tryptophan-ethylester (p-toluene sulfuric acid salt)]
